In US20240239841A1, “PEPTIDE AND METHOD FOR TREATING PAIN USING THE SAME” (PELL BIO-MED TECHNOLOGY CO., LTD., priority 2019, published 2024):
Non-standard residues stand in square brackets, D forms with d. pGlu = O=C1CC[C@@H](C(=O)O)N1

Key:
[1] = tested on: ICR mice with CFA-induced arthritis (bilateral mechanical hyperalgesia); experiment: Paw withdrawal threshold (PWT) by von Frey Filament in CFA-induced arthritis mice; details: for PWT value of ipsilateral hind paw / PWT value of contralateral paw: 90 min after administration; for time of best antinociceptive effect after administration: peptide 3 mg/kg, morphine 10 mg/kg, PWT determined at 0, 30, 60, 90, 120 min
IL-6 = experiment: Serum IL-6 by ELISA in CFA-induced arthritis mice after long-term oral administration; assay type: in vivo, ICR mice; details: 3 mg/kg oral once a week, 4th to 12th week; serum at 12th week; vs water control; FIG. 2
Experimental: (§1) On the other hand, the mice administered with water were served as the control group, which also comprised 6 mice. The mice in the experimental group and the control group were sacrificed on the 12th week after administration. The serum collection is conducted by cardiac puncture. The Mouse TNF-α Quantikine ELISA Kit (R&D System, MTA00B), Mouse IL-6 Quantikine ELISA Kit (R&D System, M600B) and enzyme-linked immunosorbent assay (ELISA) were used to determine and collect the serum concentration of TNF-α and IL-6 of mice in the experimental group and the control group.

TNF-α = experiment: Serum TNF-α by ELISA in CFA-induced arthritis mice after long-term oral administration; assay type: in vivo, ICR mice; details: 3 mg/kg oral once a week, 4th to 12th week; serum at 12th week; vs water control; FIG. 1
Experimental: as §1

[2] = tested on: C57BL/6JNarl male mice (radiant heat tail-flick); experiment: Radiant heat tail-flick test; assay type: in vivo, C57BL/6JNarl mice; details: oral doses of 0.1 μg/kg, 0.3 μg/kg, 0.1 mg/kg, 1 mg/kg, 3 mg/kg and 10 mg/kg, among 0.01 μg/kg to 10 mg/kg tested; latency 10-90 min; FIG. 9
Experimental: (§2) For conducting nociceptive pain and acid-induced chronic widespread pain experiments, C57BL/6JNarl male mice (20 to 25 g) were housed in an environment with temperature control (24±0.5° C.) and 12-hour light-dark cycle (lights on during 08:00-20:00) and allowed free access to standard laboratory food and tap water. Animals were allowed to acclimatize for 20 to 30 min prior to experimental manipulations. Animal care and handling procedures were adopted in accordance with the International Association for the Study of Pain guidelines for those animals used in pain research, and the procedures were approved by the Committee for Ethics in Animal Research.
The radiant heat tail-flick test was modified in accordance with F. E. D'Amour, D. L. Smith, A method for determining loss of pain sensation. The Journal of Pharmacology and Experimental Therapeutics 72, 74-79 (1941). The 5 to 12 mice from Preparation Example 3 were placed and acclimatized in the restrainers for 30 min prior to the tail-flick test. […] The latency was recorded every 10 min during the indicated time period (10-90 min) after oral administration with different dosages of the peptide of SEQ ID NO: 1 (0.01 μg/kg, 0.03 μg/kg, 0.1 μg/kg, 0.3 μg/kg, 1 μg/kg, 0.01 mg/kg, 0.1 mg/kg, 1 mg/kg, 3 mg/kg, and 10 mg/kg). Then the latency during 10-90 min was calculated. […]

[3] = tested on: C57BL/6JNarl male mice (acetic acid-induced visceral pain); experiment: Acetic acid-induced writhing (abdominal constriction) assay; assay type: in vivo, C57BL/6JNarl mice; details: oral doses of 1 μg/kg and 10 mg/kg, among 0.1 μg/kg to 10 mg/kg tested; 10 min before 1% acetic acid; FIG. 9
Experimental: as §2
Acid-induced abdominal constriction assay was performed in accordance with H. O. Collier, L. C. Dinneen, C. A. Johnson, C. Schneider, The abdominal constriction response and its suppression by analgesic drugs in the mouse. Br J Pharmacol Chemother 32, 295-310 (1968). In general, the mice from Preparation Example 3 were placed in a small observation chamber and habituated for 20 min. […] The numbers of abdominal constrictions in 30 min after acid injection were counted and the mean constriction numbers of mice of each group were calculated. […]

**Q.** How did the “PWT value of ipsilateral hind paw” value ([1]; morphine 10 mg/kg oral on 4th week, rose from 0.085±0.015 g, FIG. 3) turn out when `CN1CC[C@]23c4c5ccc(O)c4O[C@H]2[C@@H](O)C=C[C@H]3[C@H]1C5` [morphine, reference compound] was run?
**A.** 0.64 ± 0.089 g

**Q.** What about the “PWT value of contralateral paw” value ([1]; morphine 10 mg/kg oral on 4th week, rose from 0.43±0.033 g, FIG. 4) of the same compound?
**A.** 1.96 ± 0.488 g

**Q.** What about the “time of best antinociceptive effect after administration” value ([1]; oral) of the same compound?
**A.** 90 min

**Q.** With “Glp Glu Thr Ala Val Ser Ser His Glu Gln Asp ([pGlu]ETAVSSHEQD-OH; SMILES CC(C)[C@H](NC(=O)[C@H](C)NC(=O)[C@@H](NC(=O)[C@H](CCC(=O)O)NC(=O)[C@@H]1CCC(=O)N1)[C@@H](C)O)C(=O)N[C@@H](CO)C(=O)N[C@@H](CO)C(=O)N[C@@H](Cc1c[nH]cn1)C(=O)N[C@@H](CCC(=O)O)C(=O)N[C@@H](CCC(N)=O)C(=O)N[C@@H](CC(=O)O)C(=O)O) [peptide of SEQ ID NO: 1, synthesized peptide; Glp is pyroglutamic acid]” as the compound, how does the “serum concentration of IL-6” value (IL-6) read?
**A.** decreased compared to the control group

**Q.** What about the “PWT value of ipsilateral hind paw” value ([1]; 0.3 μg/kg oral, rose from 0.065 g, FIG. 7) of the same compound?
**A.** 1 g

**Q.** What about the “PWT value of contralateral paw” value ([1]; 0.3 μg/kg oral, rose from 0.32 g, FIG. 8) of the same compound?
**A.** 1 g

**Q.** What about the “PWT value of ipsilateral hind paw” value ([1]; 1 μg/kg oral, rose from 0.065 g, FIG. 7) of the same compound?
**A.** 0.6 g

**Q.** What about the “PWT value of contralateral paw” value ([1]; 1 μg/kg oral, rose from 0.32 g, FIG. 8) of the same compound?
**A.** 1.4 g

**Q.** And the “PWT value of ipsilateral hind paw” value ([1]; 3 μg/kg oral, rose from 0.065 g, FIG. 7)?
**A.** 0.16 g

**Q.** And the “PWT value of contralateral paw” value ([1]; 3 μg/kg oral, rose from 0.32 g, FIG. 8)?
**A.** 1 g

**Q.** And the “PWT value of ipsilateral hind paw” value ([1]; 1 mg/kg oral once a week, 4th to 12th week, increased from 0.09 g, FIG. 5)?
**A.** 0.5˜1 g

**Q.** What about the “PWT value of contralateral paw” value ([1]; 1 mg/kg oral once a week, 4th to 12th week, increased from 0.4 g at 3rd week, FIG. 6) of the same compound?
**A.** 0.6˜ 1.2 g

**Q.** What about the “PWT value of ipsilateral hind paw” value ([1]; 3 mg/kg oral once a week, 4th to 12th week, increased from 0.09 g of 3rd week, FIG. 5) of the same compound?
**A.** 0.63˜1 g

**Q.** What about the “PWT value of contralateral paw” value ([1]; 3 mg/kg oral once a week, 4th to 12th week, increased from 0.4 g, FIG. 6) of the same compound?
**A.** 0.87˜1.27 g

**Q.** What about the “antinociceptive effects of 1 mg/kg and 3 mg/kg compared (PWT)” value ([1]; oral, long-term administration once a week, 4th to 12th week) of the same compound?
**A.** similar

**Q.** And the “time of best antinociceptive effect after administration” value ([1]; oral)?
**A.** 90 min

**Q.** What about the “PWT value of ipsilateral hind paw” value ([1]; peptide 3 mg/kg oral on 4th week, rose from 0.07 g, FIG. 3) of the same compound?
**A.** 0.9 ± 0.156 g

**Q.** What about the “PWT value of contralateral paw” value ([1]; peptide 3 mg/kg oral on 4th week, rose from 0.5±0.047 g, FIG. 4) of the same compound?
**A.** 1.35 ± 0.193 g

**Q.** And the “antinociceptive effect compared with morphine (PWT)” value ([1]; peptide 3 mg/kg oral vs morphine 10 mg/kg oral, lower amount required)?
**A.** antinociceptive effect similar to morphine

**Q.** And the “serum concentration of TNF-α” value (TNF-α)?
**A.** not detected (ND)

**Q.** What about the “antinociceptive effect in the radiant heat tail-flick test (% MPE)” value [2] of the same compound?
**A.** best antinociceptive effect

**Q.** What about the “antinociceptive effect in the acid-induced writhing experiment (antinociceptive activity %)” value [3] of the same compound?
**A.** best antinociceptive effect
